Consider 27 compounds from US9617259B2, “Histone deacetylase inhibitors and compositions and methods of use thereof” (CHDI Foundation, Inc., priority 2013, dated 2017).

Bounds are passed on as bounds.

human catalytic domain HDAC4 protein (amino acids 648-1032), sequence (P56524 648-1032): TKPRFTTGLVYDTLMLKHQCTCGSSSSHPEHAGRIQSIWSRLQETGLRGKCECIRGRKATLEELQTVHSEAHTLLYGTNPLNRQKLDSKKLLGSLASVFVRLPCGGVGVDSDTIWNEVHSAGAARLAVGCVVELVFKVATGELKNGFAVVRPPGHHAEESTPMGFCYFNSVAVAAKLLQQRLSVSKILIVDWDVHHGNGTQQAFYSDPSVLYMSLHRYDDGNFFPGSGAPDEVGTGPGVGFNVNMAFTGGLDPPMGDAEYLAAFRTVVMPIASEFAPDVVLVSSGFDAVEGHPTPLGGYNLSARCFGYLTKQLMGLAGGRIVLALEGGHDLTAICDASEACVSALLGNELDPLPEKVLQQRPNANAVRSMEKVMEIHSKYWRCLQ

The target in this assay is human catalytic domain HDAC4 protein (amino acids 648-1032) (Homo sapiens (Human), UniProt P56524). Kind of assay: Inhibition of HDAC4 catalytic domain enzymatic activity, fluorogenic substrate Boc-Lys(Tfa)-AMC. The conditions noted are these: read-out: Biochemical HDAC-4 IC50. An excerpt:
Analysis of Inhibition of HDAC4 with Class IIa Histone Deacetylase (HDAC) Inhibitors
The potency of Class IIa Histone Deacetylase (HDAC) inhibitors is quantified by measuring the Histone Deacetylase 4 (HDAC4) catalytic domain enzymatic activity using the fluorogenic substrate, Boc-Lys(Tfa)-AMC. The substrate is deacetylated to Boc-Lys-AMC by HDAC4. Cleavage by trypsin results in the release of the fluorophore AMC from the deacetylated substrate. The fluorescence of the sample is directly related to the histone deacetylase activity in the sample.
Serial dilutions of the HDAC inhibitors and control reference compound (1-(5-(3-((4-(1,3,4-oxadiazol-2-yl)phenoxy)methyl)-1,2,4-oxadiazol-5-yl)thiophen-2-yl)-2,2,2-trifluoroethanone) are made by first resuspending the lyophilized compound to a final concentration of 10 mM in 100% dimethyl sulfoxide (DMSO). Stocks of 60 μl aliquots of the 10 mM compound in DMSO are prepared and stored at −20° C. From one stock aliquot of each compound to be tested and the reference compound, a 16-point serial dilution is prepared according to
2 μl (200×) of each diluted solution and each control (full activity: 100% DMSO alone or full inhibition 1 mM) is stamped into V-bottomed polypropylene 384-well compound plates using either the Bravo (384-well head from Agilent) or 12.5 μl 16-channel Matrix multi-channel pipette (Matrix Technologies Ltd).
A working solution of enzyme is prepared from a 500 μg/ml stock aliquot of HDAC4 catalytic domain (thawed on ice) diluted to 0.2 μg/ml with assay buffer (50 mM Tris-HCl, 137 mM NaCl, 2.7 mM KCl, and 1 mM MgCl2 at pH 8 and equilibrated to room temperature) just prior to the addition of the enzyme to the assay.
5× (50 μM) substrate is prepared just prior to the addition to the assay. A 1 mM substrate stock is made by diluting a 100 mM Boc-Lys(Tfa)-AMC in DMSO solution 1:100 by adding it drop-wise to assay buffer (equilibrated to room temperature) while vortexing at slow speed to prevent precipitation. The 5× substrate is prepared by diluting the 1 mM substrate solution 1:20 by adding it drop-wise to assay buffer (equilibrated to room temperature) while vortexing at slow speed to prevent precipitation.
3× (30 μM) Developer/Stop Solution is prepared just prior to addition to the plate by diluting a stock solution of 10 mM reference compound 1:333 in 25 mg/ml trypsin (PAA Laboratories Ltd.) equilibrated to room temperature.
5 μl of each solution of 1:20 diluted compound from above is transferred to a clear bottomed, black, 384-well assay plate using the Bravo or the Janus (384-well MDT head from Perkin Elmer). Using a 16-channel Matrix multi-channel pipette, 35 μl of the working solution of HDAC4 catalytic domain enzyme (0.2 μg/ml in assay buffer) is transferred to the assay plate. The assay is then started by adding 10 μl of 5× (50 μM) substrate to the assay plates using either the Bravo, Janus or 16-channel Matrix multi-channel pipette. The assay plate is then shaken for two minutes on an orbital shaker at 900 rpm (rotations per minute). Next the plate is incubated for 15 minutes at 37° C. The reaction is stopped by adding 25 al of 3× (30 μM) developer/stop solution to the assay plates using either the Bravo, Janus or a 16-channel Matrix multi-channel pipette. Assay plates are then shaken for 5 minutes on an orbital shaker at 1200 rpm. Next, the assay plates are incubated at 37° C. for 1 hour in a tissue culture incubator. Finally, the fluorescence is measured (Excitation: 355 nm, Emission: 460 nm) using PerkinElmer EnVision in top read mode.
As for `Cc1c(F)cccc1[C@]1(C(=O)NO)C=C(c2ccccc2)CC1` [Example 1, (R)-1-(3-fluoro-2-methylphenyl)-N-hydroxy-3-phenylcyclopent-2-enecarboxamide], the half-maximal inhibitory concentration (IC50) stood at 7600 nM.
For the compound `Cc1c(F)cccc1[C@@]1(C(=O)NO)C=C(c2ccccc2)CC1` [Example 2, (S)-1-(3-fluoro-2-methylphenyl)-N-hydroxy-3-phenylcyclopent-2-enecarboxamide], the IC50 was determined as 20 nM.
The same measure for `Cc1ccccc1C1=C[C@@](C(=O)NO)(c2cccc(F)c2C)CC1` [Example 3, (R)-1-(3-fluoro-2-methyl-phenyl)-N-hydroxy-3-(o-tolyl)cyclopent-2-ene-1-carboxamide]: 230 nM.
As to `Cc1ccccc1C1=C[C@](C(=O)NO)(c2cccc(F)c2C)CC1` [Example 4, (S)-1-(3-fluoro-2-methyl-phenyl)-N-hydroxy-3-(o-tolyl)cyclopent-2-ene-1-carboxamide], the IC50 worked out at 20 nM.
The same measure for `Cc1c(F)cccc1[C@]1(C(=O)NO)C=C(c2cncc(F)c2)CC1` [Example 5, (R)-1-(3-fluoro-2-methylphenyl)-3-(5-fluoropyridin-3-yl)-N-hydroxycyclopent-2-enecarboxamide]: 670 nM.
The same measure for `Cc1c(F)cccc1[C@@]1(C(=O)NO)C=C(c2cncc(F)c2)CC1` [Example 6, (S)-1-(3-fluoro-2-methylphenyl)-3-(5-fluoropyridin-3-yl)-N-hydroxycyclopent-2-enecarboxamide]: 10 nM; for `Cc1c(F)cccc1[C@]1(C(=O)NO)C=C(c2cnccn2)CC1` [Example 7, (R)-1-(3-fluoro-2-methylphenyl)-N-hydroxy-3-(pyrazin-2-yl)cyclopent-2-ene carboxamide]: more than 50000 nM; for `Cc1c(F)cccc1[C@@]1(C(=O)NO)C=C(c2cncc(Cl)c2)CC1` [Example 11, (S)-3-(5-chloropyridin-3-yl)-1-(3-fluoro-2-methylphenyl)-N-hydroxycyclopent-2-enecarboxamide]: 20 nM.
Regarding `Cc1c(F)cccc1[C@@]1(C(=O)NO)C=C(c2ccc3nccnc3c2)CC1` [Example 12, (S)-1-(3-fluoro-2-methylphenyl)-N-hydroxy-3-(quinoxalin-6-yl)cyclopent-2-enecarboxamide], the IC50 came out at 10 nM.
As for `Cc1c(F)cccc1[C@@]1(C(=O)NO)C=C(c2ccnc(C(F)(F)F)c2)CC1` [Example 13, (S)-1-(3-fluoro-2-methylphenyl)-N-hydroxy-3-(2-(trifluoromethyl)pyridin-4-yl)cyclopent-2-enecarboxamide], the IC50 stood at 40 nM.
As for `Cc1c(F)cccc1[C@@]1(C(=O)NO)C=C(c2cncnc2)CC1` [Example 14, (S)-1-(3-fluoro-2-methylphenyl)-N-hydroxy-3-(pyrimidin-5-yl)cyclopent-2-enecarboxamide], the IC50 came out at 30 nM.
The same measure for `Cc1c(F)cccc1[C@@]1(C(=O)NO)C=C(c2ccc(F)cn2)CC1` [Example 15, (S)-1-(3-fluoro-2-methylphenyl)-3-(5-fluoropyridin-2-yl)-N-hydroxycyclopent-2-enecarboxamide]: 40 nM; for `Cc1c(F)cccc1[C@@]1(C(=O)NO)C=C(c2ccc(C(F)(F)F)nc2)CC1` [Example 16, (S)-1-(3-fluoro-2-methylphenyl)-N-hydroxy-3-(6-(trifluoromethyl)pyridin-3-yl)cyclopent-2-enecarboxamide]: 20 nM.
The same measure for `Cc1c(F)cccc1[C@@]1(C(=O)NO)C=C(c2cncc(C(F)(F)F)c2)CC1` [Example 17, (S)-1-(3-fluoro-2-methylphenyl)-N-hydroxy-3-(5-(trifluoromethyl)pyridin-3-yl)cyclopent-2-enecarboxamide]: 30 nM; for `Cc1c(F)cccc1[C@@]1(C(=O)NO)C=C(c2cnn(C(F)F)c2)CC1` [Example 18, (S)-3-(1-(difluoromethyl)-1H-pyrazol-4-yl)-1-(3-fluoro-2-methylphenyl)-N-hydroxycyclopent-2-enecarboxamide]: 20 nM.
The same measure for `Cc1c(F)cccc1[C@@]1(C(=O)NO)C=C(c2cc(F)cnc2C2CC2)CC1` [Example 19, (S)-3-(2-cyclopropyl-5-fluoropyridin-3-yl)-1-(3-fluoro-2-methylphenyl)-N-hydroxycyclopent-2-enecarboxamide]: 40 nM; for `Cc1c(F)cccc1[C@@]1(C(=O)NO)C=C(c2ccc3nc(C(F)(F)F)cnc3c2)CC1` [Example 20, (S)-1-(3-fluoro-2-methylphenyl)-N-hydroxy-3-(2-(trifluoromethyl)quinoxalin-6-yl)cyclopent-2-enecarboxamide]: 70 nM; for `Cc1c(F)cccc1[C@@]1(C(=O)NO)C=C(c2ccn3ccnc3c2)CC1` [Example 21, (S)-1-(3-fluoro-2-methylphenyl)-N-hydroxy-3-(imidazo[1,2-a]pyridin-7-yl)cyclopent-2-enecarboxamide]: 10 nM.
For the compound `Cc1c(F)cccc1[C@@]1(C(=O)NO)C=C(c2ccc3onc(C)c3c2)CC1` [Example 22, (S)-1-(3-fluoro-2-methylphenyl)-N-hydroxy-3-(3-methylbenzo[d]isoxazol-5-yl)cyclopent-2-enecarboxamide], the IC50 turned out to be 30 nM.
The same measure for `COc1ncc(C2=C[C@](C(=O)NO)(c3cccc(F)c3C)CC2)cc1F` [Example 23, (S)-1-(3-fluoro-2-methylphenyl)-3-(5-fluoro-6-methoxypyridin-3-yl)-N-hydroxycyclopent-2-enecarboxamide]: 40 nM; for `Cc1c(F)cccc1[C@@]1(C(=O)NO)C=C(c2cnc(C3CC3)nc2)CC1` [Example 24, (S)-3-(2-cyclopropylpyrimidin-5-yl)-1-(3-fluoro-2-methylphenyl)-N-hydroxycyclopent-2-enecarboxamide]: 20 nM; for `Cc1ccc(C2=C[C@](C(=O)NO)(c3cccc(F)c3C)CC2)cn1` [Example 25, (S)-1-(3-fluoro-2-methylphenyl)-N-hydroxy-3-(6-methylpyridin-3-yl)cyclopent-2-enecarboxamide]: 10 nM.
`Cc1ncc(C2=C[C@](C(=O)NO)(c3cccc(F)c3C)CC2)cc1Cl` [Example 26, (S)-3-(5-chloro-6-methylpyridin-3-yl)-1-(3-fluoro-2-methylphenyl)-N-hydroxycyclopent-2-enecarboxamide]: the IC50 came out at 10 nM.
The same measure for `Cc1c(F)cccc1[C@@]1(C(=O)NO)C=C(c2ccnn2C)CC1` [Example 27, (S)-1-(3-fluoro-2-methylphenyl)-N-hydroxy-3-(1-methyl-1H-pyrazol-5-yl)cyclopent-2-enecarboxamide]: 20 nM; for `Cc1c(F)cccc1[C@@]1(C(=O)NO)C=C(c2cnn(CC(F)(F)F)c2)CC1` [Example 28, (S)-1-(3-fluoro-2-methylphenyl)-N-hydroxy-3-(1-(2,2,2-trifluoroethyl)-1H-pyrazol-4-yl)cyclopent-2-enecarboxamide]: 20 nM; for `Cc1c(F)cccc1[C@@]1(C(=O)NO)C=C(c2cccc3cnsc23)CC1` [Example 29, (S)-3-(benzo[d]isothiazol-7-yl)-1-(3-fluoro-2-methylphenyl)-N-hydroxycyclopent-2-enecarboxamide]: 30 nM.
The same measure for `O=C(NO)C1(c2ccccc2)CC=CC1` [Example 30, N-hydroxy-1-phenyl-cyclopent-3-enecarboxamide]: 12300 nM.

The term IC50 denotes the concentration that gives 50% inhibition.
